Measurements: patent US8841301B2, “Selective NR2B antagonists” (Bristol-Myers Squibb Company, priority 2011, dated 2014)

Molecular target: hNR2B (Homo sapiens, UniProt Q05586+Q13224)
Assay: Electrophysiology NMDA receptor experiments: two electrode voltage-clamp in Xenopus laevis oocytes expressing GluN1/GluN2 subunits
Type: cell-based
Conditions: oocytes voltage clamped at −40 mV; 50 μM glutamate, 30 μM glycine; read-out: Rating (hNR2B IC50)
Protocol: Electrophysiology NMDA Receptor Experiments.
Stage V and VI oocytes were surgically removed from the ovaries of large, well-fed and healthy Xenopus laevis anesthetized with 3-amino-benzoic acid ethyl ester (3 gm/l). Clusters of isolated oocytes were incubated with 292 U/ml Worthington (Freehold, N.J.) type IV collagenase or 1.3 mg/ml collagenase (Life Technologies, Gaithersburg, Md.; 17018-029) for 2 hr in Ca^2+-free solution comprised of (in mM) 115 NaCl, 2.5 KCl, and 10 HEPES, pH 7.5, with slow agitation to remove the follicular cell layer. Oocytes were then washed in the same solution supplemented with 1.8 mM CaCl2 and maintained in Barth's solution comprised of (in mM): 88 NaCl, 1 KCl, 2.4 NaHCO3, 10 HEPES, 0.82 MgSO4, 0.33 Ca(NO3)2, and 0.91 CaCl2 and supplemented with 100 μg/ml gentamycin, 10 μg/ml streptomycin, and 10 μg/ml penicillin. Oocytes were manually defolliculated and injected within 24 hrs of isolation with 3-5 ng of human GluN1 subunit cRNA and 7-10 ng of human GluN2 cRNA subunit in a 50 nl volume, and incubated in Barth's solution at 18° C. for 2-7 d. Glass injection pipettes had tip sizes ranging from 10-20 microns, and were backfilled with mineral oil. cRNA was synthesized from linearized template cDNA for rat glutamate receptor subunits according to manufacturer specifications (Ambion).
Two electrode voltage-clamp recordings were made 2-7 days post-injection. Oocytes were placed in a dual-track plexiglass recording chamber with a single perfusion line that splits in a Y-configuration to perfuse two oocytes. Dual recordings were made at room temperature (23° C.) using two Warner OC725B two-electrode voltage clamp amplifiers, arranged as recommended by the manufacturer. Glass microelectrodes (1-10 Megaohms) were filled with 300 mM KCl (voltage electrode) or 3 M KCl (current electrode). The bath clamps communicated across silver chloride wires placed into each side of the recording chamber, both of which were assumed to be at a reference potential of 0 mV. Oocytes were perfused with a solution comprised of (in mM) 90 NaCl, 1 KCl, 10 HEPES, […] and 0.5 BaCl2; pH 7.4, adjusted by addition of NaOH. Oocytes were recorded under voltage clamp at −40 mV. Final concentrations for glutamate and glycine were 50 μM and 30 μM, respectively. Concentration-response curves for experimental compounds were obtained by applying in successive fashion maximal glutamate/glycine, followed by glutamate/glycine plus variable concentrations of experimental compounds. Dose response curves consisting of four to eight concentrations were obtained in this manner. The baseline leak current at −40 mV was measured before and after recording, and the full recording linearly corrected for any change in leak current. The level of inhibition by applied experimental compounds was expressed as a percent of the initial glutamate response, and averaged together across oocytes from multiple experiments. Results were pooled, and the average percent responses at antagonist concentrations were fit by the equation, Percent Response=(100−minimum)/(1+([conc]/IC50)^nH)+minimum where minimum is the residual percent response in saturating concentration of the experimental compounds, IC50 is the concentration of antagonist that causes half of the achievable inhibition, and nH is a slope factor describing steepness of the inhibition curve. […]
For NMDA receptor subtype selectivity experiments human GluN1/GluN2A, GluN1/GluN2C, and GluN1/GluN2D cRNAs were expressed in Xenopus laevis as described above. Here, 10 μM concentrations of the antagonist was perfused with 50 μM glutamate and 30 μM glycine onto the oocyte for two min and the remaining current in the presence of the antagonist was compared to the maximal current obtained with 50 μM glutamate and 30 μM glycine alone (defined as 100%). When IC50 determinations were made against other NMDA receptor subtypes the protocol as described above was followed. […]

Chain of hNR2B (Q13224 27-1484, other chains not shown): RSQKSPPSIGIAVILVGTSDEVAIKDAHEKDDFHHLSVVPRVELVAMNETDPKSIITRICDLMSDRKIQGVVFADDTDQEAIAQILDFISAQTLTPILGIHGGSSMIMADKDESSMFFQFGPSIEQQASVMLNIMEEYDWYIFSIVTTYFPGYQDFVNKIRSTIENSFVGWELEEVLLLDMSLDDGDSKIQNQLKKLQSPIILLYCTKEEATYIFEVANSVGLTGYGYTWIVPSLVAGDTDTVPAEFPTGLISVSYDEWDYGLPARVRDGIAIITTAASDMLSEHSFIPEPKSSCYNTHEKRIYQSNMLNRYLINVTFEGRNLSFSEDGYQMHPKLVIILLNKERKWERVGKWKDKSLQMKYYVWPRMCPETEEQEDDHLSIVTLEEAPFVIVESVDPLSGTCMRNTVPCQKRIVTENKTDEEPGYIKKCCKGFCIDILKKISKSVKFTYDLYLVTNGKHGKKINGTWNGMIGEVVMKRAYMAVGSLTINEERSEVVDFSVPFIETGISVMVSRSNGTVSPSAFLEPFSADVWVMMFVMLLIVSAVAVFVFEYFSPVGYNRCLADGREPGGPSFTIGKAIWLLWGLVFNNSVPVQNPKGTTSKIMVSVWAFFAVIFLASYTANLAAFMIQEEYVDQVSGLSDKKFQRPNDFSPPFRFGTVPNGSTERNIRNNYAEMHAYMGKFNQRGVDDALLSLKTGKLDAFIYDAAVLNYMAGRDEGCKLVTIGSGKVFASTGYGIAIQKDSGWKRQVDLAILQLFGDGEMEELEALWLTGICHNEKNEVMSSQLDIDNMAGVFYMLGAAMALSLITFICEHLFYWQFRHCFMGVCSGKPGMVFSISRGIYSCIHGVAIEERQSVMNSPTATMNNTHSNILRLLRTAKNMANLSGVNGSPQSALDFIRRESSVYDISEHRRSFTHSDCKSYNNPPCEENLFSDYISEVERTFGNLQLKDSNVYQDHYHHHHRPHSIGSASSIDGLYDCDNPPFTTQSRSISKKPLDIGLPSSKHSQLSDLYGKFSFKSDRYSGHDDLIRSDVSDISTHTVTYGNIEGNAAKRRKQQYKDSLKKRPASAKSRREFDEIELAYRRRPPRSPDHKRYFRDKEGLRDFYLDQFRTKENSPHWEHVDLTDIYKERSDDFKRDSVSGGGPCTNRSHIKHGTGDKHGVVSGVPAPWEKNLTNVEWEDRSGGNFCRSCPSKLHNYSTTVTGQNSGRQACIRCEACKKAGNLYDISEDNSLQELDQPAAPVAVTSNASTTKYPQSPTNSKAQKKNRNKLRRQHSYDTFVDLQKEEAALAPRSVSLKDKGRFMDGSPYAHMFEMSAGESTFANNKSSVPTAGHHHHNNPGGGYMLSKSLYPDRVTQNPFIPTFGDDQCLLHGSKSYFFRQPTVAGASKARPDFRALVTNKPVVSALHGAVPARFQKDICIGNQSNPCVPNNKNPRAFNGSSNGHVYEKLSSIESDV

Row | SMILES | IC50 [nM]
1 | O=c1ccc2cc(OCc3ccc(NCc4ccc(Cl)cc4)nc3)ccc2[nH]1 [Example 1, 6-((6-(4-chlorobenzylamino)pyridin-3-yl)methoxy)quinolin-2(1H)-one] | < 200
2 | O=c1ccc2cc(OCc3ccc(NCc4ccc(Cl)c(Cl)c4)nc3)ccc2[nH]1 [Example 2, 6-((6-(3,4-dichlorobenzylamino)pyridin-3-yl)methoxy)quinolin-2(1H)-one] | 1000 to 10000
3 | O=c1ccc2cc(OCc3ccc(Nc4ccc(OC(F)F)cc4)nc3)ccc2[nH]1 [Example 3] | < 200
4 | O=c1ccc2cc(OCc3ccc(NCc4ccc(OC(F)F)cc4)nc3)ccc2[nH]1 [Example 4] | > 10000
5 | O=c1ccc2cc(OCc3ccc(NCc4ccc(F)c(F)c4)nc3)ccc2[nH]1 [Example 5] | 201 to 1000
6 | O=C1CCc2cc(OCc3ccc(Nc4ccc(OC(F)(F)F)cc4)nc3)cc(F)c2N1 [Example 6] | 1000 to 10000
7 | O=c1ccc2cc(OCc3ccc(NCc4ccc(F)cc4)nc3)ccc2[nH]1 [Example 7] | < 200
8 | O=c1ccc2cc(OCc3ccc(NCc4cccc(Cl)c4)nc3)ccc2[nH]1 [Example 8] | 1000 to 10000
9 | O=c1ccc2cc(OCc3ccc(Nc4ccc(OC(F)(F)F)cc4)nc3)ccc2[nH]1 [Example 9] | < 200
10 | Oc1ccc(OCc2ccc(Nc3ccc(OC(F)F)cc3)nc2)cc1 [Example 10] | < 200
11 | O=c1ccc2cc(OCc3cccc(Nc4ccc(Cl)cc4)n3)ccc2[nH]1 [Example 11] | < 200
12 | O=c1ccc2cc(OCc3cnc(NCc4ccc(Cl)cc4)nc3)ccc2[nH]1 [Example 19] | < 200
13 | O=c1ccc2cc(OCc3cnc(Nc4ccc(Cl)c(Cl)c4)nc3)ccc2[nH]1 [Example 20] | < 200
14 | O=c1ccc2cc(OCc3cnc(NCc4ccc(Cl)c(Cl)c4)nc3)ccc2[nH]1 [Example 21] | > 10000
15 | O=c1ccc2cc(OCc3cnc(Nc4ccc(OC(F)F)cc4)nc3)ccc2[nH]1 [Example 22] | < 200
16 | O=c1ccc2cc(OCc3cnc(Nc4ccc(OC(F)(F)F)cc4)nc3)ccc2[nH]1 [Example 23] | < 200
17 | COc1ccc(Nc2ncc(COc3ccc4[nH]c(=O)ccc4c3)cn2)cc1 [Example 24] | < 200
18 | Cc1ccc(Nc2ncc(COc3ccc4[nH]c(=O)ccc4c3)cn2)cc1 [Example 25] | < 200
19 | O=c1ccc2cc(OCc3cnc(NCc4ccc(F)c(F)c4)nc3)ccc2[nH]1 [Example 26] | < 200
20 | O=c1ccc2cc(OCc3cnc(NCc4ccc(F)cc4)nc3)ccc2[nH]1 [Example 27] | < 200
21 | Cc1ccc(Nc2ncc(COc3ccc4[nH]c(=O)ccc4c3)cn2)cc1F [Example 28] | < 200
22 | COc1ccc(Nc2ncc(COc3ccc4[nH]c(=O)ccc4c3)cn2)cc1F [Example 29] | < 200
23 | O=c1ccc2cc(OCc3cnc(Nc4ccc(F)cc4)nc3)ccc2[nH]1 [Example 30] | < 200
24 | O=c1ccc2cc(OCc3cnc(Nc4ccc(F)c(F)c4)nc3)ccc2[nH]1 [Example 31] | < 200

Row | SMILES | IC50 [nM]
25 | O=c1ccc2cc(OCc3cnc(Nc4ccc(F)c(Cl)c4)nc3)ccc2[nH]1 [Example 32] | 201 to 1000
26 | COc1cc(Nc2ncc(COc3ccc4[nH]c(=O)ccc4c3)cn2)ccc1F [Example 33] | 1000 to 10000
27 | O=c1ccc2cc(OCc3cnc(Nc4ccc(OC(F)F)c(Cl)c4)nc3)ccc2[nH]1 [Example 35] | < 200
28 | COc1ccc(Nc2ncc(COc3ccc4[nH]c(=O)ccc4c3)cn2)cc1Cl [Example 36] | < 200
29 | O=c1ccc2cc(OCc3cnc(Nc4ccc(OC(F)F)c(F)c4)nc3)ccc2[nH]1 [Example 37] | < 200
30 | Cc1cc(Nc2ncc(COc3ccc4[nH]c(=O)ccc4c3)cn2)ccc1OC(F)F [Example 38] | < 200
31 | CCc1ccc(Nc2ncc(COc3ccc4[nH]c(=O)ccc4c3)cn2)cc1F [Example 39] | < 200
32 | CS(=O)(=O)c1ccc(Nc2ncc(COc3ccc4[nH]c(=O)ccc4c3)cn2)cc1 [Example 40] | < 200
33 | Cc1ccc(Nc2ncc(COc3ccc4[nH]c(=O)ccc4c3)cn2)cc1C [Example 41] | < 200
34 | Cc1ccc(Nc2ncc(COc3ccc4[nH]c(=O)ccc4c3)cn2)cc1Cl [Example 42] | < 200
35 | CCCc1ccc(Nc2ncc(COc3ccc4[nH]c(=O)ccc4c3)cn2)cc1 [Example 43] | < 200
36 | CC(C)c1ccc(Nc2ncc(COc3ccc4[nH]c(=O)ccc4c3)cn2)cc1 [Example 44] | < 200
37 | COc1ccc(Nc2ncc(COc3ccc4[nH]c(=O)ccc4c3)cn2)cc1C [Example 46] | < 200
38 | CC(C)(C)c1ccc(Nc2ncc(COc3ccc4[nH]c(=O)ccc4c3)cn2)cc1 [Example 47] | < 200
39 | COc1ccc(Nc2ncc(COc3ccc4[nH]c(=O)ccc4c3)cn2)cn1 [Example 48] | < 200
40 | COc1ncc(Nc2ncc(COc3ccc4[nH]c(=O)ccc4c3)cn2)cc1C [Example 49] | < 200
41 | O=c1ccc2cc(OCc3cnc(Nc4ccc(OC(F)F)nc4)nc3)ccc2[nH]1 [Example 50] | < 200
42 | Cc1nc(Nc2ccc(Cl)cc2)ncc1COc1ccc2[nH]c(=O)ccc2c1 [Example 51] | < 200
43 | Cc1nc(Nc2ccc(OC(F)F)cc2)ncc1COc1ccc2[nH]c(=O)ccc2c1 [Example 52] | < 200
44 | O=c1ccc2cc(OCc3cnc(Nc4ccc(OC(F)F)cc4)nc3C(F)(F)F)ccc2[nH]1 [Example 53] | < 200
45 | O=c1ccc2cc(OCc3cnc(Nc4ccc(Cl)cc4)nc3C(F)(F)F)ccc2[nH]1 [Example 54] | < 200
46 | CN(C)c1nc(Nc2ccc(OC(F)F)cc2)ncc1COc1ccc2[nH]c(=O)ccc2c1 [Example 55] | < 200
47 | FC(F)(F)Oc1ccc(Nc2ncc(COc3ccc4[nH]ncc4c3)cn2)cc1 [Example 56] | < 200

Same assay, conditions: oocytes voltage clamped at −40 mV; 50 μM glutamate, 30 μM glycine; read-out: hNR2B IC50

Row | SMILES | IC50 [nM]
48 | O=c1ccc2cc(OCc3ccc(NCc4ccc(Cl)cc4)nc3)ccc2[nH]1 [Example 1, 6-((6-(4-chlorobenzylamino)pyridin-3-yl)methoxy)quinolin-2(1H)-one] | 87
49 | O=c1ccc2cc(OCc3ccc(NCc4ccc(Cl)c(Cl)c4)nc3)ccc2[nH]1 [Example 2, 6-((6-(3,4-dichlorobenzylamino)pyridin-3-yl)methoxy)quinolin-2(1H)-one] | > 3000
50 | Oc1ccc(OCc2ccc(Nc3ccc(OC(F)F)cc3)nc2)cc1 [Example 10] | 13
51 | Oc1ccc(OCc2cnc(Nc3ccc(Cl)cc3)nc2)cc1 [Example 12, 4-((2-(4-chlorophenylamino)pyrimidin-5-yl)methoxy)phenol] | 394
52 | Oc1ccc(OCc2cnc(Nc3ccc(Cl)c(Cl)c3)nc2)cc1 [Example 13, 4-((2-(3,4-dichlorophenylamino)pyrimidin-5-yl)methoxy)phenol] | 395
53 | O=c1ccc2cc(OCc3cnc(Nc4ccc(Cl)cc4)nc3)ccc2[nH]1 [Example 14, 6-((2-(4-chlorophenylamino)pyrimidin-5-yl)methoxy)quinolin-2(1H)-one] | 64
54 | FC(F)(F)Oc1ccc(Nc2ncc(COc3ccc4[nH]nc(C(F)(F)F)c4c3)cn2)cc1 [Example 15, N-(4-(trifluoromethoxy)phenyl)-5-(((3-(trifluoromethyl)-1H-indazol-5-yl)oxy)methyl)pyrimidin-2-amine] | > 3000
55 | O=c1[nH]c2ccc(OCc3cnc(Nc4ccc(OC(F)F)cc4)nc3)cc2o1 [Example 16, 6-((2-((4-(difluoromethoxy)phenyl)amino)pyrimidin-5-yl)methoxy)benzo[d]oxazol-2(3H)-one] | 14
56 | Nc1ncc(OCc2cnc(Nc3ccc(OC(F)F)cc3)nc2)cn1 [Example 17, 5-((2-aminopyrimidin-5-yloxy)methyl)-N-(4-(difluoromethoxy)phenyl)pyrimidin-2-amine] | > 1000
57 | COc1nc(Nc2ccc(OC(F)F)cc2)ncc1COc1ccc2[nH]c(=O)ccc2c1 [Example 18, 6-((2-((4-(difluoromethoxy)phenyl)amino)-4-methoxypyrimidin-5-yl)methoxy)quinolin-2(1H)-one] | 5
58 | COc1ccc(Nc2ncc(COc3ccc4[nH]c(=O)ccc4c3)cn2)cc1 [Example 24] | 90
59 | Cc1ccc(Nc2ncc(COc3ccc4[nH]c(=O)ccc4c3)cn2)cc1 [Example 25] | 97
60 | O=c1ccc2cc(OCc3cnc(NCc4ccc(F)c(F)c4)nc3)ccc2[nH]1 [Example 26] | 139
61 | O=c1ccc2cc(OCc3cnc(NCc4ccc(F)cc4)nc3)ccc2[nH]1 [Example 27] | 62
62 | Cc1ccc(Nc2ncc(COc3ccc4[nH]c(=O)ccc4c3)cn2)cc1F [Example 28] | 101
